Consider one molecule from patent US20110123617A1, “CLIOQUINOL FOR THE TREATMENT OF HEMATOLOGICAL MALIGNANCIES” (priority 2007, published 2011).

Data set [1] concerns myeloma cell lines. The experiment in a line: Cell viability (MTS assay), myeloma cell lines. Format: cell-based. Particulars: 12/14 myeloma cell lines, forty-eight hours; read-out: IC50 (cell death). As to the method:
(§1) Cell viability of leukemia, myeloma, solid tumor and primary cells forty-eight hours after clioquinol treatment by MTS assay. Cell viability was assessed with the CellTiter96® Aqueous Non-Radioactive Assay kit according to manufactures' instructions (Promega). Apoptosis was measured by flow cytometry to detect cell surface Annexin V expression and propidium iodide (PI) uptake (Biovision, Mountain View, Calif., USA) as previously described (20) The inventors tested the effects of clioquinol on the viability of acute leukemia (n=7), myeloma (n=14), and solid tumor (n=5) cell lines as well as primary AML samples (n=6) and primary normal hematopoietic cells (n=3). Forty-eight hours after incubation, clioquinol induced cell death in 6/7 AML, 12/14 myeloma, 0/5 solid tumor, […] and 0/3 normal hematopoietic cells with an IC50 <20 μM (FIG. 5). Of note, after oral administration of clioquinol, trough serum concentrations of 20 μM can be achieved in patients (32).
A general note: Tetrazolium dyes change colour on reduction, which living cells bring about.

Data set [2] relates to normal hematopoietic cells. Briefly: Cell viability (MTS assay), primary normal hematopoietic cells. Format: cell-based, human. Particulars: normal hematopoietic cells supplemented with copper. On the procedure: as §1
Data set [3] deals with primary AML patient samples. Briefly: Cell viability (MTS assay), primary AML patient samples. Format: cell-based, human. As to the method: as §1
For data set [4], the system named is K562 leukemia cells. Briefly: K562 leukemia xenograft. Format: in vivo, mouse. As to conditions: 100 mg/kg for 5 of 7 days, subcutaneous K562. From the text: Similar results were obtained with a K562 leukemia xenograft.
Data set [5] concerns p27. Briefly: Immunoblotting of p27. Format: cell-based. Particulars: low micromolar concentrations. From the text:
A) Effect of increasing concentrations of clioquinol on LP1 and MY5 multiple myeloma cells at twenty hours after clioquinol treatment; determined by SDS-PAGE immunoblotting. B) Effect of increasing concentrations of clioquinol on the G0/G1 ratio in AML3, U937, LP1 and MY5 cells at twenty hours after clioquinol treatment; determined by PI staining and flow cytometry. To prepare cytosolic extracts, NIH3T3 cells and myeloma cells were washed with phosphate-buffered saline (PBS, pH 7.4) and suspending in lysis buffer [10 mM Tris (pH 7.4), 150 mM NaCl, 0.1% Triton X-100, 0.5% sodium deoxycholate, and 5 mM EDTA] containing protease inhibitors (Complete tablets, Roche, Indianapolis, Ind.). Protein concentrations were determined by the Bradford assay. Immunoblot assays were performed by subjecting equal amounts of protein to SDS-PAGE gels followed by transfer to Nitrocellulose membranes. Membranes were probed with polyclonal rabbit anti-human cyclin D2 (0.5 μg/ml, both from Santa Cruz Biotech, Santa Cruz, Calif.), or monoclonal mouse-anti human p21 (1:200 v/v, Santa Cruz Biotech), monoclonal mouse-anti human p27 (1:2,500 v/v BD Transduction Laboratories), polyclonal mouse-anti human ubiquitin (1:2,000 v/v Calbiochem) and monoclonal mouse-anti-β-actin (1:10,000 v/v) (Sigma, St. Lois, Mo.). […] Detection was performed by the Enhanced Chemical Luminescence (ECL) method (Pierce, Rockford, Ill.).
A general note: A western blot detects proteins with antibodies after separation by electrophoresis.

For data set [6], the system named is proteasome in primary AML cells. Briefly: Proteasome activity in primary AML cells. Format: cell-based, human. On the procedure: Proteasome activity of primary acute myeloid leukemia (AML) blasts or normal peripheral blood stem cells (PBSC) after twenty hours of treatment with clioquinol (CQ), or an equimolar concentration of […] and CuCl2 (Cu). After treatment, the preferential chymotrypsin-like substrate Suc-LLVY-AMC was added and the rate of free AMC was measured over time with a florescent spectrophotometric plate reader (excitation=380 nm, emission=460 nm). Cellular proteins were extracted from cells with lysis buffer (50 mM HEPES pH 7.5, 150 mM NaCl, 2 mM ATP, and 1% Triton X-100). The chymotrypsin-like activity of the proteasome was measured by incubating equal amounts of protein with the preferential chymotrypsin-like substrate Suc-LLVY-AMC in assay buffer (50 mM Tris-HCl, pH 7.5, 150 mM NaCl) for two hours. After incubation, […] and the rate of free AMC was measured over time with a florescent spectrophotometric plate reader (excitation=380 nm, emission=460 nm). The inventors examined the effect of clioquinol and copper on primary AML cells and normal hematopoietic cells. Primary AML were obtained from the peripheral blood of patients with AML. Normal hematopoietic stem cells (PBSC) were obtained from the peripheral blood of volunteers donating stem cells for allotransplant. […] After incubation, cell lysates were prepared and the enzymatic activity of the proteasome measured as above.

Data set [7] has as its system acute leukemia cell lines. The experiment in a line: Cell viability (MTS assay), acute leukemia cell lines. Format: cell-based. Particulars: 6/7 AML cell lines, forty-eight hours; read-out: IC50 (cell death). As to the method: as §1
For data set [8], the system named is AML3, U937, LP1 and MY5 cells. Briefly: Cell cycle analysis (PI staining and flow cytometry). Particulars: low micromolar concentrations. Format: cell-based. On the procedure: A) Effect of increasing concentrations of clioquinol on LP1 and MY5 multiple myeloma cells at twenty hours after clioquinol treatment; determined by SDS-PAGE immunoblotting. B) Effect of increasing concentrations of clioquinol on the G0/G1 ratio in AML3, U937, LP1 and MY5 cells at twenty hours after clioquinol treatment; determined by PI staining and flow cytometry. Cells were harvested, washed with cold PBS, suspended in 70% cold ethanol and incubated overnight at −20° C. Cells were then treated with 100 ng/ml of DNase-free RNase (InvitroGen) at 37° C. for 30 min, washed with cold PBS, and resuspended in PBS with 50 μg/ml of propidium iodine. DNA content was analyzed by flow cytometry (FACSCalibur, Becton Dickinson, Fla., USA). The percentage of cells in each phase of the cell cycle was calculated with ModiFit software (Becton Dickinson).
On the technique in general: In flow cytometry, cells or beads pass a laser one at a time.

For data set [9] the following is noted: patients, after oral administration; cited from earlier work.

Usually IC50 stands for the midpoint of a concentration-inhibition curve. For `Oc1c(I)cc(Cl)c2cccnc12` [clioquinol, 5-chloro-7-iodo-8-hydroxyquinoline], the half-maximal inhibitory concentration (IC50) was below 20 µM in data set [1]; below 20 µM in data set [3] (Homo sapiens, 6/7 primary AML patient samples, forty-eight hours, read-out: IC50 (cell death)); below 20 µM in data set [7]. Besides, the potency of clioquinol result in [2] and in data set [3] (primary AML cells supplemented with copper) was “increased the potency of clioquinol” each time. The “tumor growth (tumor volume)” value in data set [4] is reported as “delayed tumor growth”. Besides, in data set [5], the “expression of p27” value is recorded as “increased expression”. Further, the “enzymatic activity of the proteasome” value in data set [6] was “inhibited the proteasome”. For the same molecule, the cell cycle arrest entry in [8] is recorded as “arrested cells in the G1 phase”. Besides, the trough serum concentrations in data set [9] is 20 µM.
